US20130183719A1, “METHOD FOR PRODUCING VIRUS VECTOR” (priority 2010, published 2013)

Key:
PBMC = test: Gene transduction of PBMC with MS-MA24-siTCR retrovirus supernatants from producer cells cultured in the test media (CD8/MAGE-A4 tetramer flow cytometry); assay type: cell-based, human; conditions: Example 9; FIG. 8
From the text: A HEK 293 T cell (ATCC CRL-11268) was transfected with the codon modified TCR and siRNA-coexpression retroviral vector (MS-MA24-siTCR) described in WO 2008/153029 using Retrovirus Packaging Kit Eco (manufactured by TAKARA BIO INC.) according to the manufacturer's protocol to obtain an ecotropic retrovirus supernatant. The virus supernatant was filtered with a 0.45 μm filter (Milex HV, manufactured by Millipore). A PG13 cell was infected with the filtrate by a method using polybrene, and then cloned by a limiting dilution method.
(§1) A working cell bank (WCB) prepared from the cloned cell obtained in Example 7-1 was thawed in a water bath at 37° C. The cell solution thus thawed was put into a 15 mL centrifuging tube. After addition of a complete medium [a DMEM medium (manufactured by Gibco) containing 10% fetal bovine serum (10% FBS, manufactured by SAFC Biosciences)], the tube was subjected to centrifugation (500×g, 5 minutes, 20° C.). After the centrifugation, a supernatant was removed, and the cells were suspended in 10 mL of the complete medium and then counted. After cell counting, the cell suspension was adjusted with the complete medium to 78.5×10^4 cells/mL. To a 100 mm dish for cell culture (manufactured by IWAKI) were added 1 mL of the cell suspension and 14.7 mL of the complete medium. The cell culture was carried out in a CO2 incubator (37° C., 95% of humidity, 5% CO2). […]

retrovirus vector = test: RNA copy number in retrovirus supernatant (Retrovirus Titer Set, real time PCR); conditions: Example 9; FIG. 9
Protocol: as §1, with “CO2). The cell was subcultured at intervals of 3 days.” for “CO2).”
The RNA copy number was determined using Retrovirus Titer Set (for Real Time PCR) (manufactured by TAKARA BIO INC.) according to a standard method described in the directions for use attached to the product.
The retrovirus producer cell as described in Example 7-1 was used to prepare virus supernatants. […] However, virus supernatants collected over 3 days were mixed and evaluated in this Example, whereas virus supernatants were collected over 4 days in Example 2-1.

CC(/C=C/C(=O)NO)=C\[C@@H](C)C(=O)c1ccc(N(C)C)cc1 [TSA, trichostatin A]
gene transduction efficiency, TSA 500 nM compared with 50 nM (PBMC): more effective
RNA copy number, TSA 500 nM compared with 50 nM (retrovirus vector): more effective
